US20140315886A1, “QUINAZOLINES AS THERAPEUTIC COMPOUNDS AND RELATED METHODS OF USE” (OTSUKA PHARMACEUTICAL CO., LTD., priority 2011, published 2014)
Where a name gives a salt, the structure may show the parent alone.

These compounds were tested against T1, purified STEP46 enzyme (Homo sapiens, UniProt P54829) (assay: STEP46 biochemical assay (DiFMUP fluorescence phosphatase assay)). Settings: DiFMUP 10 μM, read-out: STEP IC50.
T1 sequence (P54829 197-565 limits assumed): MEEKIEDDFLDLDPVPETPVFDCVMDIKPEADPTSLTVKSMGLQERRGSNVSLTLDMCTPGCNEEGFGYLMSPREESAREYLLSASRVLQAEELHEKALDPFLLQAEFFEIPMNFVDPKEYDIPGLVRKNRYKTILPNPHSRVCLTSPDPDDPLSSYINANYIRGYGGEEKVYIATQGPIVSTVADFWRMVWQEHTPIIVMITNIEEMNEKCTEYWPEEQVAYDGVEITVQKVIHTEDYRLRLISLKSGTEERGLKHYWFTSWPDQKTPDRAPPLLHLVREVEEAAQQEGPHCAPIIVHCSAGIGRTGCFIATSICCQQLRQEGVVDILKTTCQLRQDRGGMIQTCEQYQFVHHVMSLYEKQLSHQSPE
Protocol: Serial dilutions of compounds were performed in 100% DMSO and 1 uL of compounds were dispensed into 384-well black polystyrene plates (Corning, N.Y.). Compounds were incubated with 24 uL of buffer containing 50 mM Hepes, 1 mM DTT, 0.02% Brij35, 1 ng/well purified STEP46 enzyme for […] at room temperature. The reaction was initiated by addition of 25 uL of DiFMUP (6,8-difluoro-4-methylumbelliferyl phosphate) (InVitrogen, CA) with a final concentration of 10 μM and incubated at 27° C. for 90 mM Final DMSO concentration is 2%. Plates were read with florescence intensity at excitation/emission of 360/460 nm using a PheraStar plate reader (BMG Labtech, NC).
Data were expressed as percentage (%) inhibition of enzyme activity. 0% inhibition is defined as the RFUs (relative fluorescence units) in the absence of compounds and 100% inhibition is defined as RFUs in the absence of STEP46 enzyme. IC50 values of compounds with inhibitory activity against STEP46 were determined by GraphPad Prism (version 4.03) using four parameter logistic equation. Some compounds act as activators. For compounds showing STEP46 enzymatic activation, data are represented as percentage of inhibition but with negative values at three representative concentrations (25, 50 and 100 uM).
`Clc1ccc2c(c1)CCN2c1nc(-c2cccnc2)nc2cc(-c3cncnc3)ccc12` [Compound 101] was tested, and the IC50 was under 1 µM.
`CC(=O)Nc1cccc(-c2ccc3c(N4CCc5cc(Cl)ccc54)nc(-c4cccnc4)nc3c2)c1` [Compound 102] was tested, and the IC50 was 1 to 10 µM.
Compound `Fc1ccc(-c2ccc3c(N4CCc5ccccc54)nc(-c4cccnc4)nc3c2)c(F)c1` [Compound 103] has an IC50 of 1 to 10 µM.
Compound `O=[N+]([O-])c1ccc2c(c1)CCN2c1nc(-c2cccnc2)nc2cc(-c3ccc(F)cc3F)ccc12` [Compound 104] has an IC50 of under 1 µM.
With `O=[N+]([O-])c1ccc2c(c1)CCN2c1nc(-c2cccnc2)nc2cc(-c3cccnc3)ccc12` [Compound 106] the IC50 was under 1 µM.
`Fc1cccc(-c2ccc3c(N4CCc5cc(Cl)ccc54)nc(-c4cccnc4)nc3c2)c1F` [Compound 108] was tested, and the IC50 was 1 to 10 µM.
With `Fc1ccc(F)c(-c2ccc3c(N4CCc5cc(Cl)ccc54)nc(-c4cccnc4)nc3c2)c1` [Compound 109] the IC50 was 1 to 10 µM.
`COc1cc(F)ccc1-c1ccc2c(N3CCc4cc(Cl)ccc43)nc(-c3cccnc3)nc2c1` [Compound 110] was tested, and the IC50 was under 1 µM.
`Clc1ccc2c(c1)CCN2c1nc(-c2cccnc2)nc2cc(-c3ccccc3Cl)ccc12` [Compound 111] was tested, and the IC50 was over 10 µM.
`Cc1c(-c2cccnc2)ccc2c(N3CCc4cc(Cl)ccc43)nc(-c3cccnc3)nc12` [Compound 114] showed an IC50 of under 1 µM.
In the case of `Cc1c(-c2cncnc2)ccc2c(N3CCc4cc(Cl)ccc43)nc(-c3cccnc3)nc12` [Compound 115], the IC50 is reported as under 1 µM.
Work on `Cc1c(-c2cccc(F)c2)ccc2c(N3CCc4cc(Cl)ccc43)nc(-c3cccnc3)nc12` [Compound 117] yielded an IC50 of over 10 µM.
Work on `CNc1nc(-c2cccnc2)nc2ccc(OCCCN3CCN(C)CC3)cc12` [Compound 136, N-methyl-6-(3-(4-methylpiperazin-1-yl)propoxy)-2-(pyridin-3-yl)quinazolin-4-amine tetrahydrochloride] yielded an IC50 of 1 to 10 µM.
`CCCOc1ccc2nc(-c3cccnc3)nc(N3CCc4cc(Cl)ccc43)c2c1` [Compound 137] was tested, and the IC50 was under 1 µM.
`CNc1nc(-c2cccnc2)nc2cc(-c3cccc(OCC(=O)N(C)C)c3)ccc12` [Compound 138] showed an IC50 of 1 to 10 µM.
With `CCOc1cccc(-c2ccc3c(NC)nc(-c4cccnc4)nc3c2)c1` [Compound 141] the IC50 was 1 to 10 µM.
For `CNC(=O)COc1cc(F)cc(-c2ccc3c(NC)nc(-c4cccnc4)nc3c2)c1` [Compound 142], the IC50 was 1 to 10 µM.
With `CNc1nc(-c2cccnc2)nc2cc(-c3cc(F)cc(OCC(=O)N(C)C)c3)ccc12` [Compound 143] the IC50 was 1 to 10 µM.
Work on `CNc1nc(-c2cccnc2)nc2cc(-c3cc(F)cc(OCCOC)c3)ccc12` [Compound 144] yielded an IC50 of 1 to 10 µM.
With `CCOc1cc(F)cc(-c2ccc3c(NC)nc(-c4cccnc4)nc3c2)c1` [Compound 145] the IC50 was 1 to 10 µM.
`CNc1nc(-c2cncnc2)nc2cc(-c3cc(F)ccc3F)ccc12` [Compound 155] showed an IC50 of 1 to 10 µM.
Work on `CNc1nc(-c2ccc(F)nc2)nc2cc(-c3cc(F)ccc3F)ccc12` [Compound 156] yielded an IC50 of 1 to 10 µM.
`CNc1nc(-c2cncc(F)c2)nc2cc(-c3cc(F)ccc3F)ccc12` [Compound 157] showed an IC50 of 1 to 10 µM.
`CNc1nc(-c2cccnc2OC)nc2cc(-c3cc(F)ccc3F)ccc12` [Compound 158] showed an IC50 of 1 to 10 µM.
In the case of `CNc1nc(-c2cncc(C)c2)nc2cc(-c3cc(F)ccc3F)ccc12` [Compound 160], the IC50 is reported as 1 to 10 µM.
For `CNc1nc(-c2ccc(C)nc2)nc2cc(-c3cc(F)ccc3F)ccc12` [Compound 161], the IC50 was 1 to 10 µM.
Compound `CNc1nc(-c2cncc(OC)c2)nc2cc(-c3cc(F)ccc3F)ccc12` [Compound 162] has an IC50 of 1 to 10 µM.
Work on `CNc1nc(-c2cncc(C#N)c2)nc2cc(-c3cc(F)ccc3F)ccc12` [Compound 163] yielded an IC50 of 1 to 10 µM.
`CNc1nc(-c2cccnc2)nc2ccc(-c3cccc(CC(N)=O)c3)cc12` [Compound 166] showed an IC50 of over 10 µM.
In the case of `CNc1nc(-c2cccnc2)nc2ccc(-c3ccnc(C#N)c3)cc12` [Compound 167], the IC50 is reported as 1 to 10 µM.
`CNc1nc(-c2cccnc2)nc2ccc(-c3ccc4[nH]c(=O)[nH]c4c3)cc12` [Compound 168] showed an IC50 of under 1 µM.
Compound `CNc1nc(-c2cccnc2)nc2ccc(-c3ccc4sc(C)nc4c3)cc12` [Compound 169, N-methyl-6-(2-methylbenzo[d]thiazol-5-yl)-2-(pyridin-3-yl)quinazolin-4-amine, 2HCl] has an IC50 of under 1 µM.
Work on `CNc1nc(-c2cccnc2)nc2ccc(-c3ccc4c(c3)OCCCO4)cc12` [Compound 170] yielded an IC50 of over 10 µM.
`CNc1nc(-c2cccnc2)nc2ccc(-c3ccc(CO)cc3)cc12` [Compound 173] gave an IC50 of 1 to 10 µM.
`CNc1nc(-c2cccnc2)nc2ccc(-c3ncco3)cc12` [Compound 178] gave an IC50 of over 10 µM.
With `CNC(=O)c1cc(-c2ccc3nc(-c4cccnc4)nc(NC)c3c2)ccc1F` [Compound 180] the IC50 was 1 to 10 µM.
With `CNc1nc(-c2cccnc2)nc2ccc(-c3ccc(F)c(C(N)=O)c3)cc12` [Compound 183] the IC50 was 1 to 10 µM.
`CNc1nc(-c2cccnc2)nc2c(OC)cc(-c3cccc(F)c3F)cc12` [Compound 194] gave an IC50 of 1 to 10 µM.
`CNc1nc(-c2cccnc2)nc2c(OC)cc(-c3ccc(F)cc3F)cc12` [Compound 195] showed an IC50 of under 1 µM.
In the case of `CNc1nc(-c2cccnc2)nc2cc(F)c(-c3ccc(F)cc3F)cc12` [Compound 196], the IC50 is reported as under 1 µM.
With `CNc1nc(-c2cccnc2)nc2cc(C(F)(F)F)c(-c3ccc(F)cc3F)cc12` [Compound 198] the IC50 was over 10 µM.
`CNc1nc(-c2cccnc2)nc2ccc(-c3ccc(S(C)(=O)=O)c(C(F)(F)F)c3)cc12` [Compound 199] gave an IC50 of 1 to 10 µM.
In the case of `CCOc1ccc(F)c(-c2ccc3nc(-c4cccnc4)nc(NC)c3c2)c1` [Compound 201], the IC50 is reported as 1 to 10 µM.
`CNc1nc(-c2cccnc2)nc2ccc(-c3ccc(C(F)(F)F)cc3C(F)(F)F)cc12` [Compound 202] showed an IC50 of over 10 µM.
For `CNc1nc(-c2cccnc2)nc2c(OC)cc(-c3cc(F)cc(F)c3)cc12` [Compound 204], the IC50 was 1 to 10 µM.
In the case of `CNc1nc(-c2cccnc2)nc2c(OC)cc(-c3ccccc3C#N)cc12` [Compound 205], the IC50 is reported as 1 to 10 µM.
For `CNc1nc(-c2cccnc2)nc2c(OC)cc(-c3cccc(C#N)c3)cc12` [Compound 206], the IC50 was over 10 µM.
`CNc1nc(-c2cccnc2)nc2c(OC)cc(-c3ccccc3OC)cc12` [Compound 207] gave an IC50 of 1 to 10 µM.
`CNc1nc(-c2cccnc2)nc2c(OC)cc(-c3ccc(OC)cc3)cc12` [Compound 208] gave an IC50 of 1 to 10 µM.
`CNc1nc(-c2cccnc2)nc2cc(OC(F)(F)F)c(-c3cccc(F)c3)cc12` [Compound 209] gave an IC50 of 1 to 10 µM.
For `CNc1nc(-c2cncnc2)nc2ccc(-c3cccc(F)c3)cc12` [Compound 210], the IC50 was 1 to 10 µM.
`CNc1nc(-c2ccnnc2)nc2ccc(-c3cccc(F)c3)cc12` [Compound 212] was tested, and the IC50 was over 10 µM.
In the case of `Nc1nc(-c2cncnc2)nc2ccc(-c3cccc(F)c3)cc12` [Compound 213], the IC50 is reported as over 10 µM.
In the case of `CNc1nc(-c2cccnc2F)nc2ccc(-c3cccc(F)c3)cc12` [Compound 214], the IC50 is reported as 1 to 10 µM.
`CNc1nc(-c2cccnc2)nc2cc(-c3cccc(OC)c3F)ccc12` [Compound 215] gave an IC50 of 1 to 10 µM.
Work on `CNc1nc(-c2cccnc2)nc2cc(-c3ccc(OC)cc3F)ccc12` [Compound 218] yielded an IC50 of 1 to 10 µM.
Work on `CNc1nc(-c2cccnc2)nc2cc(-c3cc(OC)ccc3F)ccc12` [Compound 219] yielded an IC50 of 1 to 10 µM.
In the case of `CNc1nc(-c2cccnc2C)nc2ccc(-c3cccc(F)c3)cc12` [Compound 220], the IC50 is reported as 1 to 10 µM.
Compound `CNc1nc(-c2cccnc2)nc2ccc(-c3cccc(F)c3F)c(F)c12` [Compound 221] has an IC50 of 1 to 10 µM.
`CNc1nc(-c2cccnc2)nc2ccc(-c3ccc(F)cc3F)c(F)c12` [Compound 222] gave an IC50 of 1 to 10 µM.
`CNc1nc(-c2cccnc2)nc2ccc(-c3cccc(F)c3)c(F)c12` [Compound 223] gave an IC50 of 1 to 10 µM.
For `CNc1nc(-c2cccnc2)nc2ccc(-c3cccc(OCCC(C)O)c3)cc12` (centres unmarked) [Compound 224], the IC50 was 1 to 10 µM.
Work on `CNc1nc(-c2cccnc2)nc2cc(OC)c(-c3cccc(F)c3F)cc12` [Compound 230] yielded an IC50 of 1 to 10 µM.
Compound `CNc1nc(-c2cccnc2)nc2ccc(-c3ccc(F)c4ccoc34)cc12` [Compound 233] has an IC50 of under 1 µM.
Compound `CNc1nc(-c2cccnc2)nc2ccc(-c3cccc(S(N)(=O)=O)c3)cc12` [Compound 235] has an IC50 of over 10 µM.
`CNc1nc(-c2cccnc2)nc2ccc(-c3ccc(C)cc3F)cc12` [Compound 239] gave an IC50 of 1 to 10 µM.
Work on `CNc1nc(-c2cccnc2)nc2ccc(-c3cc(Cl)ccc3F)cc12` [Compound 240] yielded an IC50 of 1 to 10 µM.
Work on `CNc1nc(-c2cccnc2)nc2ccc(-c3c(F)cccc3Cl)cc12` [Compound 241] yielded an IC50 of 1 to 10 µM.
Work on `CCOc1cccc(-c2ccc3nc(-c4cccnc4)nc(NC)c3c2)c1F` [Compound 242] yielded an IC50 of over 10 µM.
`CNc1nc(-c2cccnc2)nc2c(Cl)cc(-c3cccc(F)c3F)cc12` [Compound 243] gave an IC50 of 1 to 10 µM.
With `CNc1nc(-c2cccnc2)nc2c(Cl)cc(-c3ccc(F)cc3F)cc12` [Compound 244] the IC50 was 1 to 10 µM.
